Experimental data taken from US8211929B2, “Pyrimidine derivatives as kinase modulators and method of use” (Exelixis, Inc., priority 2004, dated 2012).

Columns and labels:
IGF 3P = target: T1, IGF 3P (Homo sapiens, UniProt P08069); assay: IGF1R kinase assay (LCCA), IGF 3P; type: biochemical; conditions: IGF1R kinase LCCA assay
T1 construct: human IGF1R kinase domain residues M954-C1367; made in house; host or cells: baculovirus expression (insect cells)
Protocol: (§1) Kinase activity and compound inhibition are investigated using one or more of the three assay formats described below. The ATP concentrations for each assay are selected to be close to the Michaelis-Menten constant (KM) for each individual kinase. Dose-response experiments are performed at 10 different inhibitor concentrations in a 384-well plate format. […] Y=Min+(Max−Min)/(1+(X/IC50)^H) Equation (2)
(§2) IGF1R kinase biochemical activity was assessed using a Luciferase-Coupled Chemiluminescent Kinase assay (LCCA) format. Kinase activity was measured as the percent ATP remaining following the kinase reaction. Remaining ATP was detected by luciferase-luciferin-coupled chemiluminescence. Specifically, the reaction was initiated by mixing test compounds, 3 μM ATP, 4 μM poly EY peptide and 4 nM IGF1R (baculovirus expressed human IGF1R kinase domain residues M954-C1367) in a 20 uL assay buffer (20 mM Tris-HCL pH7.5, 10 mM MgCl2, 0.02% Triton X-100, 1 mM DTT, 2 mM MnCl2). The mixture is incubated at ambient temperature for 2 hours after which 20 uL luciferase-luciferin mix is added and the chemiluminescent signal read using a Wallac Victor^2 reader.

[1] = target: T2, (Homo sapiens, UniProt P08069); assay: IGF1R kinase assay (LCCA), IGF 0P; type: biochemical; conditions: IGF1R kinase LCCA assay
T2 construct: human IGF1R kinase domain residues M954-C1367; made in house; host or cells: baculovirus expression (insect cells)
Protocol: as §1, §2

T2 sequence (P08069 954-1367): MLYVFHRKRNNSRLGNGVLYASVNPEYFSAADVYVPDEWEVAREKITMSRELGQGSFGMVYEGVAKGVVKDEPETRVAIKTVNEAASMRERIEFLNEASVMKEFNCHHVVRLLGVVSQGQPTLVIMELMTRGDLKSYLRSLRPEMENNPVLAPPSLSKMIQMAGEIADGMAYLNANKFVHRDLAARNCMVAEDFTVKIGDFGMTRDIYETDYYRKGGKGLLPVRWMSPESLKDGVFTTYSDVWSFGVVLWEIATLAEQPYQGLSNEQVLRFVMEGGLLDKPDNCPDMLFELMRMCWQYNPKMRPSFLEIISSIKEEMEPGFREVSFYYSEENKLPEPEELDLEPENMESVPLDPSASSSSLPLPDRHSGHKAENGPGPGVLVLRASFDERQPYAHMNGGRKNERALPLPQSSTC
T1 sequence (P08069 954-1367): as above

Row | IC50 (IGF 3P) [nM] | IC50 [1] [nM] | Compound
1 | 50 to 500 | 500 to 5000 | Brc1cnc(Nc2cc(C3CC3)n[nH]2)nc1Nc1cc(C2CC2)n[nH]1 [Example 133]
2 | 50 to 500 | 500 to 5000 | Cc1cc(C)cc(Nc2ncc(Br)c(Nc3cc(C4CC4)n[nH]3)n2)c1 [Example 134]
3 | 50 to 500 | 50 to 500 | Brc1cnc(NCc2ccco2)nc1Nc1cc(C2CC2)n[nH]1 [Example 138]
4 | 50 to 500 | 500 to 5000 | O=S(=O)(c1ccc(Nc2ncc(Br)c(Nc3cc(C4CC4)n[nH]3)n2)cc1)N1CCOCC1 [Example 140]
5 | 50 to 500 | 500 to 5000 | CC(C)(C)OC(=O)N1CC[C@H](NC(=O)c2cccc(Nc3ncc(Br)c(Nc4cc(C5CC5)n[nH]4)n3)c2)C1 [Example 141]
6 | 50 to 500 | 500 to 5000 | Cc1ccc(CNc2ncc(Br)c(Nc3cc(C4CC4)n[nH]3)n2)o1 [Example 142]
7 | 50 to 500 | 500 to 5000 | Clc1cc(Br)ccc1Nc1ncc(Br)c(Nc2cc(C3CC3)[nH]n2)n1 [Example 143]
8 | 50 to 500 | 500 to 5000 | CC(C)(C)OC(=O)N1CC[C@@H](NC(=O)c2ccc(Nc3ncc(Br)c(Nc4cc(C5CC5)n[nH]4)n3)cc2)C1 [Example 145]
9 | 50 to 500 | 500 to 5000 | COc1ccc(C)cc1Nc1ncc(Br)c(Nc2cc(C3CC3)[nH]n2)n1 [Example 147]
10 | 50 to 500 | 500 to 5000 | c1cc(Nc2cc(C3CCCC3)n[nH]2)nc(Nc2ccc(N3CCOCC3)cc2)n1 [Example 151]
11 | 500 to 5000 | 500 to 5000 | Cc1cnc(Nc2ccc(C(=O)NC3CCN(C)CC3)cc2)nc1Nc1cc(C2CC2)n[nH]1 [Example 157]
12 | 500 to 5000 | 500 to 5000 | Brc1ccc(Nc2ncc(Br)c(Nc3cc(C4CC4)n[nH]3)n2)c(Br)c1 [Example 163]
13 | 500 to 5000 | 500 to 5000 | CN1CCC(NC(=O)c2ccc(Nc3nccc(Nc4cc(C5CC5)n[nH]4)n3)cc2)CC1 [Example 164]
14 | 500 to 5000 | 500 to 5000 | Cc1ccc(C(C)C)cc1Nc1ncc(Br)c(Nc2cc(C3CC3)n[nH]2)n1 [Example 165]
15 | 500 to 5000 | 500 to 5000 | N#Cc1ccc(Nc2ncc(Br)c(Nc3cc(C4CC4)n[nH]3)n2)cc1 [Example 166]
16 | 500 to 5000 | 500 to 5000 | CCN(CC)CCNC(=O)c1ccc(Nc2ncc(C)c(Nc3cc(C4CC4)n[nH]3)n2)cc1 [Example 167]
17 | 500 to 5000 | 500 to 5000 | O=C(Nc1ccc(Cl)c(Nc2ncc(Br)c(Nc3cc(C4CC4)[nH]n3)n2)c1)c1ccccc1 [Example 169]
18 | 500 to 5000 | 50 to 500 | Brc1ccc(Br)c(Nc2ncc(Br)c(Nc3cc(C4CC4)n[nH]3)n2)c1 [Example 172]

Row | IC50 (IGF 3P) [nM] | IC50 [1] [nM] | Compound
19 | 500 to 5000 | 500 to 5000 | Cc1cnc(Nc2ccc(N(C)C)cc2)nc1Nc1cc(C2CC2)n[nH]1 [Example 175]
20 | 500 to 5000 | 500 to 5000 | Brc1cnc(Nc2ccc3c(c2)CCC3)nc1Nc1cc(C2CC2)[nH]n1 [Example 180]
21 | 500 to 5000 | 500 to 5000 | CCN(CC)CCCNC(=O)c1ccc(Nc2ncc(C)c(Nc3cc(C4CC4)n[nH]3)n2)cc1 [Example 181]
22 | 500 to 5000 | 500 to 5000 | CN1CCN(c2ccc(CNc3ncc(Br)c(Nc4cc(C5CC5)n[nH]4)n3)cc2)CC1 [Example 186]
23 | 500 to 5000 | 500 to 5000 | Clc1ccccc1Nc1ncc(Br)c(Nc2cc[nH]n2)n1 [Example 192]
24 | 500 to 5000 | > 5000 | CN(C)c1ccc(CNc2ncc(Br)c(Nc3cc(C4CC4)n[nH]3)n2)cc1 [Example 193]
25 | 500 to 5000 | 500 to 5000 | N#Cc1cccc(Nc2ncc(Br)c(Nc3cc(C4CC4)n[nH]3)n2)c1 [Example 196]
26 | 500 to 5000 | > 5000 | Brc1cnc(N2CCOCC2)nc1Nc1cc(C2CC2)[nH]n1 [Example 200]
27 | 500 to 5000 | 500 to 5000 | Clc1cccc(Nc2nc(Nc3ccccc3Cl)ncc2Br)c1 [Example 205]
28 | 500 to 5000 | 500 to 5000 | Cc1cc(Nc2cc(C3CC3)n[nH]2)nc(Nc2ccc(N(C)C)cc2)n1 [Example 213]
29 | 500 to 5000 | > 5000 | Cc1cc(Nc2nc(Nc3ccc(N4CCOCC4)cc3)ncc2Br)n(C)n1 [Example 215]
30 | 500 to 5000 | 500 to 5000 | Clc1ccccc1Nc1ncc(Br)c(Nc2ccccc2Cl)n1 [Example 222]
31 | 500 to 5000 | 500 to 5000 | c1cc(Nc2cc(C3CC3)n[nH]2)nc(Nc2ccc(N3CCOCC3)cc2)n1 [Example 224]
32 | 500 to 5000 | > 5000 | Clc1cccc(CCNc2ncc(Br)c(Nc3cc(C4CC4)n[nH]3)n2)c1 [Example 226]
33 | 500 to 5000 | > 5000 | Clc1ccc(CCNc2ncc(Br)c(Nc3cc(C4CC4)n[nH]3)n2)cc1 [Example 230]
34 | 500 to 5000 | > 5000 | FC(F)(F)Oc1ccc(Nc2ncc(Br)c(Nc3cc(C4CC4)[nH]n3)n2)c(Br)c1 [Example 237]
35 | 500 to 5000 | 500 to 5000 | CN(C)c1ccc(Nc2nccc(Nc3cc(C4CC4)n[nH]3)n2)cc1 [Example 238]
36 | 500 to 5000 | 500 to 5000 | Fc1c(Cl)cccc1Nc1ncc(Br)c(Nc2cc(C3CC3)n[nH]2)n1 [Example 241]

Further lines, the compound ahead of its results:

Row | Compound | IC50 (IGF 3P) [nM] | IC50 [1] [nM]
37 | Cc1ncc(CNc2ncc(Br)c(Nc3cc(C4CC4)[nH]n3)n2)s1 [Example 135] | 50 to 500 | 500 to 5000
38 | NC(=O)c1ccc(Oc2ncc(Br)c(Nc3cc(C4CC4)n[nH]3)n2)cc1 [Example 158] | 500 to 5000 | 500 to 5000
39 | CCN(CC)CCCNc1nc(Nc2cc(C3CC3)n[nH]2)c(Cl)c(Nc2ccccc2Cl)n1 [Example 160] | 500 to 5000 | > 5000
40 | Fc1cnc(Nc2ccccc2Cl)nc1Nc1cc(C2CC2)[nH]n1 [Example 168] | 500 to 5000 | 50 to 500
41 | Brc1cnc(NCCc2cccs2)nc1Nc1cc(C2CC2)n[nH]1 [Example 170] | 500 to 5000 | 500 to 5000
42 | Cc1cc(Nc2cc(C3CC3)n[nH]2)nc(Nc2ccc3cc(C(=O)NCCN4CCCC4)sc3c2)n1 [Example 173] | 500 to 5000 | 500 to 5000
43 | Cc1cc(Nc2cc(C3CC3)[nH]n2)nc(NCc2cc(-c3ccc(Cl)cc3)no2)n1 [Example 178] | 500 to 5000 | 50 to 500
44 | Brc1cnc(NCc2nccs2)nc1Nc1cc(C2CC2)[nH]n1 [Example 179] | 500 to 5000 | 500 to 5000
45 | CCN(CC)CCCNc1cc(Nc2cc(C3CC3)n[nH]2)nc(Nc2ccccc2Cl)n1 [Example 182] | 500 to 5000 | 500 to 5000
46 | CCN(CC)CCNC(=O)c1ccc(Nc2nccc(Nc3cc(C4CC4)n[nH]3)n2)cc1 [Example 184] | 500 to 5000 | 500 to 5000
47 | COc1cc(CNc2ncc(Br)c(Nc3cc(C4CC4)[nH]n3)n2)cc(OC)c1 [Example 187] | 500 to 5000 | 500 to 5000
48 | Brc1cnc(NCc2cc(-c3ccccc3)no2)nc1Nc1cc(C2CCCC2)n[nH]1 [Example 189] | 500 to 5000 | 50 to 500
49 | CCN(CC)CCCNC(=O)c1ccc(Nc2nccc(Nc3cc(C4CC4)n[nH]3)n2)cc1 [Example 195] | 500 to 5000 | 500 to 5000
50 | Brc1cnc(NCC2CCNCC2)nc1Nc1cc(C2CC2)n[nH]1 [Example 198] | 500 to 5000 | > 5000
51 | Brc1cnc(NCC2CCCO2)nc1Nc1cc(C2CC2)n[nH]1 (centres unmarked) [Example 201] | 500 to 5000 | > 5000
52 | COc1cc(Nc2nccc(Nc3cc(C4CC4)n[nH]3)n2)cc(OC)c1 [Example 203] | 500 to 5000 | 500 to 5000
53 | CN(Cc1ccccc1Cl)c1ncc(Br)c(Nc2cc(C3CC3)[nH]n2)n1 [Example 204] | 500 to 5000 | 500 to 5000
54 | COc1ccccc1CNc1nc(C)cc(Nc2cc(C3CC3)[nH]n2)n1 [Example 207] | 500 to 5000 | 500 to 5000
55 | Clc1ccccc1Nc1nc(Nc2cc(C3CC3)n[nH]2)c2nc[nH]c2n1 [Example 210] | 500 to 5000 | 50 to 500
56 | Brc1cnc(NC2CCNCC2)nc1Nc1cc(C2CC2)[nH]n1 [Example 214] | 500 to 5000 | > 5000
57 | Brc1cnc(NCc2csc(-c3cccs3)n2)nc1Nc1cc(C2CC2)[nH]n1 [Example 218] | 500 to 5000 | 500 to 5000
58 | Nc1cnc(Nc2ccccc2Cl)nc1Nc1cc(C2CC2)n[nH]1 [Example 220] | 500 to 5000 | 50 to 500
59 | CCN(CC)CCNC(=O)c1cc2ccc(Nc3nc(C)cc(Nc4cc(C5CC5)n[nH]4)n3)cc2s1 [Example 221] | 500 to 5000 | 500 to 5000
60 | CN(c1ccccc1)c1ncc(Br)c(Nc2cc(C3CC3)[nH]n2)n1 [Example 223] | 500 to 5000 | 50 to 500
61 | CC(=O)Nc1ccc(Cl)c(Nc2nccc(Nc3cc(C4CC4)[nH]n3)n2)c1 [Example 227] | 500 to 5000 | 500 to 5000
62 | O=C(NCCN1CCOCC1)c1nc(Nc2ccccc2Cl)nc(Nc2cc(C3CC3)n[nH]2)c1[N+](=O)[O-] [Example 228] | 500 to 5000 | 500 to 5000
63 | O=C(NCc1ccccc1)c1nc(Nc2ccccc2Cl)nc(Nc2cc(C3CC3)n[nH]2)c1[N+](=O)[O-] [Example 239] | 500 to 5000 | 500 to 5000
64 | Clc1ccc(CCNc2ncc(Br)c(Nc3cc(C4CC4)n[nH]3)n2)c(Cl)c1 [Example 240] | 500 to 5000 | > 5000
